Laboratory results reported in patent US20260374739A1, “SMALL MOLECULAR WEIGHT CHEMICAL COMPOUND TO ANTAGONIZE EPH-EPHRIN TETRAMERIZATION AND INHIBIT BIDIRECTIONAL SIGNALING” (THE BOARD OF REGENTS OF THE UNIVERSITY OF TEXAS SYSTEM, priority 2022, published 2026).

Key:
[1] = tested on: Zymosan-induced mechanical pain in mice; test: Zymosan inflammatory pain, mechanical; type: in vivo, mouse; conditions: PO; for mechanical pain ratio: vehicle about 3
Experimental: An alternative and potentially faster pain model using Zymosin (an inflammatory agent like CFA) to induce inflammatory pain was tested. […] Mice were first acclimated to the pain testing set ups and then subjected to baseline mechanical and thermal pain measurements. Early in the morning the following day, the left hind paws were injected subcutaneously with 30 μL of Zymosan (5 mg/ml in PBS; Z4250, Sigma-Aldrich). Two hours after the Zymosan injection, the left hind paws were assessed for thermal pain using Hargreaves device (2-4 hr), and then left paws tested for mechanical pain using VF filaments (4-6 hr), and then again for thermal pain (6-8 hr). Data from two independent experiments were pooled to increase the n values for the three different genotypes. […] Thermal pain increased in all group following Zymosan injury as indicated by a decreased average response time to the infrared heat source in all animals assessed, and the level of pain intensified from the 2-4 hr testing period to the 6-8 hr period.
Inflammatory pain was induced by subcutaneous injection of 30 μl of 5 mg/ml Zymosan into the right hind paws of 12 wild-type adult male mice (5-6 months age, 129×1/SvJ background) that in previous days were acclimated to the testing chambers and assessed to obtain baseline pain measurements. After 15 min, mice were orally dosed with either vehicle only (97% PBS/3% DMSO) or with 20, 10, or 5 mg/kg of A20 (2×·HCl salt in vehicle), 3 mice for each condition. Two hours after Zymosan injection, the right hind paws were assessed for thermal pain using Hargreaves device (2-4 hr), then mice were orally dosed again with vehicle only or A20 chemicals, and then right paws tested for mechanical pain using VF filaments (4-6 hr), and then again for thermal pain (6-8 hr).
Inflammatory pain was induced by subcutaneous injection of 30 μl of 5 mg/ml Zymosan into the left hind paws of 9 wild-type adult males (5-6 months age, 129/CD1 mixed background) that in previous days were acclimated to the testing chambers and assessed to obtain baseline pain measurements. After 15 min, mice were orally dosed with either vehicle only (97% PBS/3% DMSO) or with 20 mg/kg of 3511-I (2×·HCl salt in vehicle), or 20 mg/kg BQPB4 (3×·HCl salt in 97% sunflower seed oil/3% DMSO), 3 mice for each condition. Two hours after Zymosan injection, the left […] hind paws were assessed for mechanical pain using VF filaments (2-4 hr), then mice were orally dosed again with vehicle only or A20 chemicals, and then left hind paws tested for thermal pain using Hargreaves device (4-6 hr), and then again for mechanical pain (6-8 hr).

[2] = molecular target: T1, EphB2-EphrinB2 (Mus musculus, UniProt P54763); test: EphrinB2 co-immunoprecipitation with EphB2 in mouse brain after dosing; type: in vivo; conditions: IP 10 mg/kg every 12 hr, 4 days
T1 construct: Whole brain protein lysates were then prepared in a Dounce homogenizer; from tissue; host or cells: brain of wild-type mice
T1 sequence (P54763 19-986): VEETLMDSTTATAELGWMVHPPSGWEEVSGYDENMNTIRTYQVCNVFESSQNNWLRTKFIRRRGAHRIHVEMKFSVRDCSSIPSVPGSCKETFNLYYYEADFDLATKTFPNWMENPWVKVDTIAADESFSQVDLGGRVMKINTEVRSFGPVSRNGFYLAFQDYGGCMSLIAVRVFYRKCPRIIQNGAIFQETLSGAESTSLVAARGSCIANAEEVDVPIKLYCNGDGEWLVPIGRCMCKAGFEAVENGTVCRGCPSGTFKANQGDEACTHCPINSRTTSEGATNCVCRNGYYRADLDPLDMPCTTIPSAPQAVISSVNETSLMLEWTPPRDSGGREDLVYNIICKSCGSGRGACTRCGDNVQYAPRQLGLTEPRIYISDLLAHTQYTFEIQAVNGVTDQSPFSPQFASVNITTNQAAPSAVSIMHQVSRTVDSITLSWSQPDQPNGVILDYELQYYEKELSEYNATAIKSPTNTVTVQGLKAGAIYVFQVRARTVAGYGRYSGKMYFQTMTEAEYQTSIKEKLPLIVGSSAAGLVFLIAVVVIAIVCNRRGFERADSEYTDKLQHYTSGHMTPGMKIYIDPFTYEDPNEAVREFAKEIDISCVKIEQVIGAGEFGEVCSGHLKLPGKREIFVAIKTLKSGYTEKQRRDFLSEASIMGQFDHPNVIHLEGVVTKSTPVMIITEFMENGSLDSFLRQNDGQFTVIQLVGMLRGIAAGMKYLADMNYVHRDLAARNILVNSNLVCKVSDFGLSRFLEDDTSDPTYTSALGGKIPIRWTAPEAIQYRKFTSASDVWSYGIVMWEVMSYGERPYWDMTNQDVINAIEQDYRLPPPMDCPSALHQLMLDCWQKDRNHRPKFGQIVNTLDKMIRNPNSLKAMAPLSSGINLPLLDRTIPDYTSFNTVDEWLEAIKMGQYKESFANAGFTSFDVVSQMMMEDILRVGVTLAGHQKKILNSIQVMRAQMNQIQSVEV
Experimental: Wild-type mice aged 10-12 weeks were IP injected every 12 hr for four days with vehicle (PBS) or 10 mg/kg of 2×·HCl salt forms of A20 (in PBS), A20-I (in PBS), or 3511-I, in 94% PBS/6% DMSO) for a total of 8 injections. Exactly 2 hr after final injection of A20 chemical, brains were dissected and frozen at −80 °C. Whole brain protein lysates were then prepared in a Dounce homogenizer using 5 ml PLC lysis buffer, and 1 ml of lysate was used for immunoprecipitation (IP) with 1 μg goat anti-EphB2 antibody, followed by immunoblot (IB) analysis with goat anti-EphB2, rabbit anti-phosphoEphB1/B2 (pEphB1/B2), and mouse anti-EphrinB2 antibodies using appropriate HRP conjugated secondary antibodies and chemiluminescent detection methods.
FIG. 79A depicts an illustrative immunoblot showing expression of EphB2, phospho-EphB1/B2, and EphrinB2 (co-IP) in the mouse brains. […] The level of co-immunoprecipitated EphrinB2 from the brains of A20 chemical injected animals was generally lower as indicated by fainter bands. FIGS. 79B and 79C show quantification of band intensities (number of photons detected) to obtain ratios of pEphB/EphB2 as a measure of EphB2 receptor activation levels (FIG. 79B) and ratios of EphrinB2/EphB2 as a measure of how much EphrinB2 is co-immunoprecipitated with the EphB2 receptor (FIG. 79C).

SMILES	mechanical pain [1]	mechanical pain ratio [1]	association of EphrinB2 with EphB2 in brain [2]
Oc1c(Br)cc(CN2CCN(c3ccc(Br)cc3)CC2)c2cccnc12 [Compound 28, 7-bromo-5-((4-(4-bromophenyl)piperazin-1-yl)methyl)quinolin-8-ol]	essentially no enhanced mechanical pain sensitivity	~1	–
Oc1c(I)cc(CN2CCOCC2)c2cccnc12 [Compound 7, 7-iodo-5-(morpholinomethyl)quinolin-8-ol]	–	–	reduced level of association with EphrinB2
COc1ccccc1N1CCN(Cc2cc(I)c(O)c3ncccc23)CC1 [Compound 71, 7-iodo-5-((4-(2-methoxyphenyl)piperazin-1-yl)methyl)quinolin-8-ol]	somewhat blunted mechanical pain response	–	reduced level of association with EphrinB2
Oc1c(Br)cc(CN2CCOCC2)c2cccnc12 [Compound 5, 7-bromo-5-(morpholinomethyl)quinolin-8-ol]	significant reductions in both mechanical and thermal pain	~1	reduced level of association with EphrinB2
